Results: US20230398130A1, “METHODS AND COMPOSITIONS FOR DIFFERENTIATING STEM CELLS” (Massachusetts Institute of Technology, priority 2020, published 2023)

Experiments:
[1] = tested on: ISC-enriched organoids; test: Primary screen, 384-well 2.5-D organoid differentiation (ENR+CD, 6 days): basal lysozyme secretion (LYZ.NS); type: cell-based, murine; conditions: for Dose.FC.LYZ.NS / SSMD.LYZ.NS: primary screen; for Dose.FC.LYZ.NS: FC vs plate median; for Z.LYZ.NS: standard z score of FC; for SSMD.LYZ.NS: strictly standardized mean difference
Source text: (§1) High-throughput screening.

[2] = tested on: ISC-enriched organoids; test: Primary screen, 384-well 2.5-D organoid differentiation (ENR+CD, 6 days, Target Selective Inhibitor Library, vs whole-plate median): ATP (CellTiter-Glo 3D, CTG); conditions: for Dose.FC.CTG / SSMD.CTG: primary screen; for Dose.FC.CTG: FC vs plate median; for Z.CTG: standard z score of FC; for SSMD.CTG: strictly standardized mean difference
[3] = tested on: ISC-enriched organoids; test: Primary screen, 384-well 2.5-D organoid differentiation (ENR+CD, 6 days): carbachol-induced lysozyme secretion (LYZ.S); type: cell-based, murine; conditions: primary screen; for Dose.FC.LYZ.S: FC vs plate median; for Z.LYZ.S: standard z score; for SSMD.LYZ.S: strictly standardized mean difference
Source text: as §1

[4] = 1st of the 4 dose lines of the treatment (dose not given)
[5] = 2nd of the 4 dose lines of the treatment (dose not given)
[6] = 3rd of the 4 dose lines of the treatment (dose not given)
[7] = 4th of the 4 dose lines of the treatment (dose not given)

Structure (SMILES) | Dose.FC.LYZ.NS ([1]; Dose 0.08 uM) | Z.LYZ.NS ([1]; Dose 0.08 uM) | Dose.FC.LYZ.NS ([1]; Dose 0.40 uM) | Z.LYZ.NS ([1]; Dose 0.40 uM) | Dose.FC.LYZ.NS ([1]; Dose 2.00 uM) | Z.LYZ.NS ([1]; Dose 2.00 uM) | Dose.FC.LYZ.NS ([1]; Dose 10.00 uM) | Z.LYZ.NS ([1]; Dose 10.00 uM) | SSMD.LYZ.NS [1, 4] | SSMD.LYZ.NS [1, 5] | SSMD.LYZ.NS [1, 6] | SSMD.LYZ.NS [1, 7] | Dose.FC.CTG ([2]; Dose 0.08 uM) | Z.CTG ([2]; Dose 0.08 uM) | Dose.FC.CTG ([2]; Dose 0.40 uM) | Z.CTG ([2]; Dose 0.40 uM) | Dose.FC.CTG ([2]; Dose 2.00 uM) | Z.CTG ([2]; Dose 2.00 uM) | Dose.FC.CTG ([2]; Dose 10.00 uM) | Z.CTG ([2]; Dose 10.00 uM) | other results
C[C@](O)(COc1ccc(C#N)cc1)C(=O)Nc1ccc(C#N)c(C(F)(F)F)c1 [MK-2866 (GTx-024)] | 0.035 log 2 fold change | 0.309 | 0.028 log 2 fold change | 0.241 | 0.036 log 2 fold change | 0.310 | −0.059 log 2 fold change | −0.510 | 0.314 | 0.150 | 0.169 | −0.515 | 0.001 log 2 fold change | 0.003 | −0.198 log 2 fold change | −0.474 | −0.088 log 2 fold change | −0.210 | −0.367 log 2 fold change | −0.877 | SSMD.CTG [2, 4]: 0.004; SSMD.CTG [2, 5]: −0.285; SSMD.CTG [2, 6]: −0.199; SSMD.CTG [2, 7]: −0.814; Dose.FC.LYZ.S ([3]; Dose 0.08 uM): 0.072 log 2 fold change; Dose.FC.LYZ.S ([3]; Dose 0.40 uM): 0.050 log 2 fold change; Dose.FC.LYZ.S ([3]; Dose 2.00 uM): 0.078 log 2 fold change; Dose.FC.LYZ.S ([3]; Dose 10.00 uM): −0.072 log 2 fold change; Z.LYZ.S [3, 4]: 0.466; Z.LYZ.S [3, 5]: 0.322; Z.LYZ.S [3, 6]: 0.506; Z.LYZ.S [3, 7]: −0.463; SSMD.LYZ.S [3, 4]: 0.378; SSMD.LYZ.S [3, 5]: 0.164; SSMD.LYZ.S [3, 6]: 0.307; SSMD.LYZ.S [3, 7]: −0.543
O=[N+]([O-])C=Cc1ccc2c(c1)OCO2 | 0.057 log 2 fold change | 0.499 | −0.010 log 2 fold change | −0.088 | 0.040 log 2 fold change | 0.347 | −0.150 log 2 fold change | −1.307 | 0.518 | −0.082 | 0.270 | −0.670 | −0.016 log 2 fold change | −0.037 | 0.061 log 2 fold change | 0.146 | 0.062 log 2 fold change | 0.148 | −0.197 log 2 fold change | −0.469 | SSMD.CTG [2, 4]: −0.026; SSMD.CTG [2, 5]: 0.148; SSMD.CTG [2, 6]: 0.166; SSMD.CTG [2, 7]: −0.338; Dose.FC.LYZ.S ([3]; Dose 0.08 uM): 0.076 log 2 fold change; Dose.FC.LYZ.S ([3]; Dose 0.40 uM): 0.100 log 2 fold change; Dose.FC.LYZ.S ([3]; Dose 2.00 uM): 0.019 log 2 fold change; Dose.FC.LYZ.S ([3]; Dose 10.00 uM): −0.179 log 2 fold change; Z.LYZ.S [3, 4]: 0.493; Z.LYZ.S [3, 5]: 0.648; Z.LYZ.S [3, 6]: 0.124; Z.LYZ.S [3, 7]: −1.157; SSMD.LYZ.S [3, 4]: 0.451; SSMD.LYZ.S [3, 5]: 0.331; SSMD.LYZ.S [3, 6]: 0.073; SSMD.LYZ.S [3, 7]: −0.676
